US12611492B2, “Local drug delivery devices and methods for treating cancer” (Massachusetts Institute of Technology, priority 2013, dated 2026)

Test system: pancreatic xenografts
Details: NOD/SCID/γc, mouse, in vivo, iv
Description: To quantify intratumoral drug distribution, serial sections of the tumor perpendicular to the PED were imaged by quantitative confocal microscopy. […] Tissue penetration within the tumor was quantified by line scans starting from the entry site for paclitaxel (PED—tumor/device interface; IV—vessels).

SMILES: CC(=O)O[C@H]1C(=O)[C@@]2(C)[C@H]([C@H](OC(=O)c3ccccc3)[C@]3(O)C[C@H](OC(=O)[C@H](O)[C@@H](NC(=O)c4ccccc4)c4ccccc4)C(C)=C1C3(C)C)[C@]1(OC(C)=O)CO[C@@H]1C[C@@H]2O [paclitaxel]
- paclitaxel presence radius around the vessels: ≤ 10 micron
